Earlier results, collected in patent US20190298660A1, “PHOSPHATE-CROSSLINKED STARCH NANOPARTICLES AND USE FOR DRUG DELIVERY” (GreenMark Biomedical Inc., priority 2018, published 2019).

pKa: 9.53
SMILES: COc1cccc2c1C(=O)c1c(O)c3c(c(O)c1C2=O)C[C@@](O)(C(=O)CO)C[C@@H]3O[C@H]1C[C@H](N)[C@H](O)[C@H](C)O1 [doxorubicin]
